Results from PMC4105339 (Antiviral research, 2014).
Marks after values point to notes of the source that are not given here.

Key:
[1] = test system: A/Mississippi/03/01 H1N1 H274Y mutant neuraminidase
[2] = test system: B/Perth/211/01 D197E mutant neuraminidase
H3N2 E119V neuraminidase = details: cited from earlier work
[3] = target: B/Perth/211/01 D197E mutant neuraminidase; details: cited from earlier work
[4] = test system: A/Fukui/45/04 H3N2 E119V mutant neuraminidase

Structure (SMILES): CC(=O)N[C@H]1[C@H]([C@H](O)[C@H](O)CO)OC(C(=O)O)=C[C@@H]1N=C(N)N [Zanamivir]
- Time (T½) for reaction rates to reach half the maximum rate of the uninhibited control [1]: 43.2 min
- Time (T½) for reaction rates to reach half the maximum rate of the uninhibited control [2]: 17.0^* min
- changes in IC50 from 10 to 60 min in the preincubation reaction (H3N2 E119V neuraminidase): 1.9 fold
- IC50 [3]: 258 nM

Structure (SMILES): CCC(CC)[C@H](NC(C)=O)[C@@H]1[C@H](O)[C@@H](C(=O)O)C[C@H]1N=C(N)N [Peramivir, peramivir]
- Time (T½) for reaction rates to reach half the maximum rate of the uninhibited control [4]: >240 min
- Time (T½) for reaction rates to reach half the maximum rate of the uninhibited control [2]: 18.8 min
- IC50 [3]: 41.5 nM
